Laboratory results taken from US11090319B2, “Therapeutic uses of pharmaceutical compositions comprising cyclic boronic acid ester derivatives” (Melinta Subsidiary Corp., priority 2010, dated 2021).
Like-named read-outs stand apart in the source and are kept apart here.

Experiments:
[1] = test system: KP1011 Klebsiella pneumoniae SHV-5; assay: microbe, parasite or virus in culture; assay type: cell-based; settings: derivative at 10 μg/mL; KP1011 SHV-5
Experimental: (§1) Next, ceftazidime potentiation activity of several cyclic boronic acid ester derivatives was tested using a larger panel of strains expressing β-lactamase hydrolyzing enzymes. Ceftazidime MICs were determined alone and in the presence of fixed concentrations of various cyclic boronic acid ester derivatives.

[2] = test system: SM1000 Serratia marcescens SME-2; assay: Checkerboard assay, biapenem potentiation; settings: Biapenem MIC 8-fold; SM1000 SME-2 class A
KPC-2, lysate of KP1008 = KPC-2, lysate of KP1008 (Klebsiella pneumoniae, UniProt Q9F663); assay: Inhibition of ceftazidime hydrolysis by bacterial lysate
[3] = test system: ECL1004 Enterobacter cloacae NMC-A; assay: Checkerboard assay, biapenem potentiation; settings: Biapenem MIC 8-fold; ECL1004 NMC-A class A
OXA-2, lysate of KX1000 = OXA-2, lysate of KX1000 (Salmonella typhimurium, UniProt P0A1V8); assay: Inhibition of ceftazidime hydrolysis by bacterial lysate
KPC-2, lysate of KP1004 = KPC-2, lysate of KP1004 (Klebsiella pneumoniae, UniProt Q9F663); assay: as above
[4] = target: CTX-M-14, lysate of KP1005 (Escherichia coli, UniProt Q9L5C7); assay: as above
[5] = target: CTX-M-15, lysate of KP1009 (Escherichia coli, UniProt Q9EXV5); assay: as above
GES-1, lysate of pa 1063 = GES-1, lysate of pa 1063 (Klebsiella pneumoniae, UniProt Q9KJY7); assay: as above
DHA-1, lysate of EC1014 = DHA-1, lysate of EC1014 (Escherichia coli, UniProt Q84AE0); assay: as above; settings: read-out: IC50 of inhibition of Ceftazidime hydrolysis; EC1014 DHA-1
[6] = test system: EC1016 Escherichia coli FOX-5; assay: Ceftazidime MIC with fixed concentration of BLI; assay type: cell-based; settings: derivative at 10 μg/mL; EC1016 FOX-5
Experimental: as §1

[7] = test system: EC1012 Escherichia coli TEM-12; assay: Ceftazidime MIC with fixed concentration of BLI; assay type: cell-based; settings: derivative at 10 μg/mL; EC1012 TEM-12
Experimental: as §1

[8] = test system: ECL1003 Enterobacter cloacae Hyper AmpC expression; assay: Ceftazidime MIC with fixed concentration of BLI; assay type: cell-based; settings: derivative at 10 μg/mL
Experimental: as §1

[9] = test system: CF1001 Citrobacter freundii Hyper AmpC expression; assay: Ceftazidime MIC with fixed concentration of BLI; assay type: cell-based; settings: derivative at 10 μg/mL
Experimental: as §1

[10] = test system: CF1000 Citrobacter freundii Hyper AmpC expression; assay: Ceftazidime MIC with fixed concentration of BLI; assay type: cell-based; settings: derivative at 10 μg/mL
Experimental: as §1

[11] = test system: KP1013 Klebsiella pneumoniae CMY-2; assay: Ceftazidime MIC with fixed concentration of BLI; assay type: cell-based; settings: derivative at 10 μg/mL; KP1013 CMY-2
Experimental: as §1

[12] = test system: KP1006 Klebsiella pneumoniae CTX-M2; assay: Ceftazidime MIC with fixed concentration of BLI; assay type: cell-based; settings: derivative at 10 μg/mL
Experimental: as §1

[13] = test system: KP1014 Klebsiella pneumoniae Vim-1; assay: Ceftazidime MIC with fixed concentration of BLI; assay type: cell-based; settings: derivative at 10 μg/mL; KP1014 Vim-1
Experimental: as §1

SA1000 Salmonella CMY-2 = assay: Ceftazidime MIC with fixed concentration of BLI; assay type: cell-based; settings: derivative at 10 μg/mL; SA1000 CMY-2
Experimental: as §1

[14] = test system: AB1052 Acinetobacter baumannii OXA-24; assay: Ceftazidime MIC with fixed concentration of BLI; assay type: cell-based; settings: derivative at 10 μg/mL; AB1052 OXA-24
Experimental: as §1

[15] = target: various β-lactamases (bacterial lysates) (Escherichia coli, UniProt A0A649V088); assay: biochemical; assay type: biochemical; settings: read-out: AZT IC50 KP1005 CTX-M-14
[16] = target: various β-lactamases (bacterial lysates) (Klebsiella pneumoniae, UniProt Q9F663, H272Y); assay: biochemical; assay type: biochemical
[17] = target: various β-lactamases (bacterial lysates) (Salmonella typhimurium, UniProt P0A1V8); assay: biochemical; assay type: biochemical; settings: AZT IC50 KPX1001 OXA-2
[18] = target: various β-lactamases (bacterial lysates) (Escherichia coli, UniProt A0A5R8T042); assay: biochemical; assay type: biochemical; settings: read-out: AZT IC50 KP1009 CTX-M-15
[19] = target: various β-lactamases (bacterial lysates) (Klebsiella pneumoniae, UniProt Q9F663); assay: biochemical; assay type: biochemical; settings: aztreonam cleavage
[20] = target: various β-lactamases (bacterial lysates) (Pseudomonas aeruginosa, UniProt P14489); assay: biochemical; assay type: biochemical; settings: AZT IC50 KP1007 OXA-10
SHV-18, lysate of KP1012 = SHV-18, lysate of KP1012 (Klebsiella pneumoniae, UniProt P0AD64, E235K/G234A/R39S); assay: Inhibition of ceftazidime hydrolysis by bacterial lysate
SHV-12, lysate of KP1010 = SHV-12, lysate of KP1010 (Klebsiella pneumoniae, UniProt P0AD64, E235K/G234S/L31Q); assay: as above
SME-2, lysate of SM1000 = SME-2, lysate of SM1000 (Serratia marcescens, UniProt P52682); assay: Inhibition of biapenem hydrolysis by bacterial lysate; settings: read-out: IC50 of inhibition of biapenem hydrolysis; SM1000 SME-2
Chain of SME-2, lysate of SM1000 (P52682 28-294 limits assumed): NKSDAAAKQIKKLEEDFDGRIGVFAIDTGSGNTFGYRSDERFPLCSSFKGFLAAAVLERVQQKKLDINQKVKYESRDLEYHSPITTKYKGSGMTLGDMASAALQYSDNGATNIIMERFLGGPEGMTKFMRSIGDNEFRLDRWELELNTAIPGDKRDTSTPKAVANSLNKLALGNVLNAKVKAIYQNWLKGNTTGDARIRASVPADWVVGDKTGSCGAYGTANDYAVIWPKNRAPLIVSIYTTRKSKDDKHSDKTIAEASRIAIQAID

Chain of various β-lactamases (bacterial lysates) (Klebsiella pneumoniae, UniProt Q9F663) (Q9F663 whole entry, looked up): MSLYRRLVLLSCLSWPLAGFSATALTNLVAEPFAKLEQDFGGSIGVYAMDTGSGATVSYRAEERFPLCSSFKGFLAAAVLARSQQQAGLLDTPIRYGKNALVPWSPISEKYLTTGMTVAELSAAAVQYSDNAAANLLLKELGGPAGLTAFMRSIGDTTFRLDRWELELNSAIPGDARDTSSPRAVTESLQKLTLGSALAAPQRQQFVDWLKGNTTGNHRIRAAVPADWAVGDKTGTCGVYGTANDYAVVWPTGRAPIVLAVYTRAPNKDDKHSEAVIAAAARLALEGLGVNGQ
Chain of various β-lactamases (bacterial lysates) (Escherichia coli, UniProt A0A649V088) (A0A649V088 29-291): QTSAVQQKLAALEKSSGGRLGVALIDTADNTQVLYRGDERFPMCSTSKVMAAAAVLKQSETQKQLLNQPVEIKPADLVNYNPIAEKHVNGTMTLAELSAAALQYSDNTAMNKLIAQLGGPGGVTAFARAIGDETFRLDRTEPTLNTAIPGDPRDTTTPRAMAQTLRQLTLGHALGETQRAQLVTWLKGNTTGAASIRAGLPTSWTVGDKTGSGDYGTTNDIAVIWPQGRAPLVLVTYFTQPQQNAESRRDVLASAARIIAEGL
Chain of CTX-M-14, lysate of KP1005 (Q9L5C7 entry or part of it): as the sequence (A0A649V088 29-291) above
Chain of GES-1, lysate of pa 1063 (Q9KJY7 19-287): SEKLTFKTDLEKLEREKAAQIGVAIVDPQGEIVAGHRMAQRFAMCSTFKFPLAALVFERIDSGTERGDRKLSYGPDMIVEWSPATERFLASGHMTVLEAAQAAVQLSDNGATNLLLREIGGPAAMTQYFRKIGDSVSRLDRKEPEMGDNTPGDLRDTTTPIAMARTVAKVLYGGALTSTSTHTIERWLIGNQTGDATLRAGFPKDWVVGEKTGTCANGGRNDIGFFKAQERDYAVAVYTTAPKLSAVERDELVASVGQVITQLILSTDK
Chain of various β-lactamases (bacterial lysates) (Escherichia coli, UniProt A0A5R8T042) (A0A5R8T042 29-291): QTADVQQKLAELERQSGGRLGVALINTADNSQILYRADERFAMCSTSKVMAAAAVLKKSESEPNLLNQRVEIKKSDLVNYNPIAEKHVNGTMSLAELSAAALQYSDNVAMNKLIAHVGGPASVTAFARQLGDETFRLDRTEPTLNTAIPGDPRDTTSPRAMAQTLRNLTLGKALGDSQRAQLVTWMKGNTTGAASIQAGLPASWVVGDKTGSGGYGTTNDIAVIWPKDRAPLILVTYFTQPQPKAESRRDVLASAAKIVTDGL
Chain of CTX-M-15, lysate of KP1009 (Q9EXV5 entry or part of it): as the sequence (A0A5R8T042 29-291) above
Chain of SHV-18, lysate of KP1012 (P0AD64 22-286 R39S/G234A/E235K): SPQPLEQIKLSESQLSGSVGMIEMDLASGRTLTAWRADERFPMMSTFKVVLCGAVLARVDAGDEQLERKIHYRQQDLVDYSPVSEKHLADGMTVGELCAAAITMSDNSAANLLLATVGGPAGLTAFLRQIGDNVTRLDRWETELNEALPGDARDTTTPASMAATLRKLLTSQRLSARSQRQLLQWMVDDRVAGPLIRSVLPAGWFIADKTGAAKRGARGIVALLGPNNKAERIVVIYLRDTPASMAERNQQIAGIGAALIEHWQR
Chain of various β-lactamases (bacterial lysates) (Salmonella typhimurium, UniProt P0A1V8) (P0A1V8 22-275): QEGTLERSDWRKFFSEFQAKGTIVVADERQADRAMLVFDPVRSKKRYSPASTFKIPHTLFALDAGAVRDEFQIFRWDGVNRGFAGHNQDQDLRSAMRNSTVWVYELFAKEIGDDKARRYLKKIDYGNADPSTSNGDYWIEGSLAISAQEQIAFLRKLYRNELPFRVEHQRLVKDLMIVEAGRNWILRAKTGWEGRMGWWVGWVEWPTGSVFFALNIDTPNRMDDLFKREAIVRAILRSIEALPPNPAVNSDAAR
Chain of OXA-2, lysate of KX1000 (P0A1V8 22-275): as above
Chain of various β-lactamases (bacterial lysates) (Pseudomonas aeruginosa, UniProt P14489) (P14489 20-266): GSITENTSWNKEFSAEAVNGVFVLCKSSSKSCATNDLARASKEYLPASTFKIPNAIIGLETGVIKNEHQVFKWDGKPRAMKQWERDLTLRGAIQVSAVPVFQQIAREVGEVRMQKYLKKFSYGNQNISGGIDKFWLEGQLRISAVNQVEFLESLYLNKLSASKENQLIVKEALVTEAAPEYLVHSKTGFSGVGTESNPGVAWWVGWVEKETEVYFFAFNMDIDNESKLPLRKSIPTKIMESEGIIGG
Chain of KPC-2, lysate of KP1008 (Q9F663 25-293 limits assumed): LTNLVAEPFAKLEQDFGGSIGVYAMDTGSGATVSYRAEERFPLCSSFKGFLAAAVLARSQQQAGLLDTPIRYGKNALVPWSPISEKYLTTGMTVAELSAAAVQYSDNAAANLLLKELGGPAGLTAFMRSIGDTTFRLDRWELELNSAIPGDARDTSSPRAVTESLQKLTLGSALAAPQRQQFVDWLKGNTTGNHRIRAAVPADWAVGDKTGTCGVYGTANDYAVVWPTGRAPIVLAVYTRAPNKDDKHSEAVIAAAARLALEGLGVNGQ
Chain of KPC-2, lysate of KP1004 (Q9F663 25-293 limits assumed): as above
Chain of SHV-12, lysate of KP1010 (P0AD64 22-286 L31Q/G234S/E235K): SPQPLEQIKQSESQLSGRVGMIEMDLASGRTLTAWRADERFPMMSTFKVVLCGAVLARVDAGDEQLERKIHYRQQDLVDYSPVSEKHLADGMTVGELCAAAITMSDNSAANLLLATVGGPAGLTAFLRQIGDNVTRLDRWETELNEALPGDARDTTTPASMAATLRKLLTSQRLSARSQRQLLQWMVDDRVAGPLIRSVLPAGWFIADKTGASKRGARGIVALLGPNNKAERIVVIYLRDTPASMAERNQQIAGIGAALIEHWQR
Chain of various β-lactamases (bacterial lysates) (Klebsiella pneumoniae, UniProt Q9F663, H272Y) (Q9F663 whole entry H272Y, looked up): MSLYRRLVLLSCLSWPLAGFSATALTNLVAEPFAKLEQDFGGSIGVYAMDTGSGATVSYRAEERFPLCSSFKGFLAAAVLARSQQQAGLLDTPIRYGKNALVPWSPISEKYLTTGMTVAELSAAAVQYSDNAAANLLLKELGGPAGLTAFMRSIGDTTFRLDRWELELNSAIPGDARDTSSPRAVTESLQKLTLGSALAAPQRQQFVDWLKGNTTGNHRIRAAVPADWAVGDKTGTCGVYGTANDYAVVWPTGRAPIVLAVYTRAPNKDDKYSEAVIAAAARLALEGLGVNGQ

How did the “Ceftazidime MIC with cyclic boronic acid ester derivative” value (shortened to “Ceftazidime MIC”) [1] turn out when `O=C(O)C[C@@H]1CC[C@H](NC(=O)Cc2ccccc2)B(O)O1` [Compound 6, 2-((3R,6S)-2-hydroxy-3-(2-phenylacetamido)-1,2-oxaborinan-6-yl)acetic acid] was run?
The value was “X (MIC of 1 μg/mL or less)”.

What about the MPC8 [2] of the same compound?
Its MPC8 is “Y (MPC8 of 0.16 μg/mL to 1 μg/mL)”.

What about the IC50 (KPC-2, lysate of KP1008) of the same compound?
The IC50 was < 0.344 µM.

What about the MPC8 [3] of the same compound?
The MPC8 was “Y (MPC8 of 0.16 μg/mL to 1 μg/mL)”.

What about the IC50 (OXA-2, lysate of KX1000) of the same compound?
Its IC50 is 0.344 to 3.44 µM.

And the IC50 (KPC-2, lysate of KP1004)?
Its IC50 is < 0.344 µM.

What about the IC50 [4] of the same compound?
Its IC50 is 0.344 to 3.44 µM.

What about the IC50 [5] of the same compound?
Its IC50 is 0.344 to 3.44 µM.

What about the IC50 (GES-1, lysate of pa 1063) of the same compound?
Its IC50 is 0.344 to 3.44 µM.

What about the IC50 (DHA-1, lysate of EC1014) of the same compound?
The IC50 was > 3.44 µM.

What about the “Ceftazidime MIC” value [6] of the same compound?
The value was “Z (MIC of greater than 8 μg/mL)”.

What about the “Ceftazidime MIC” value [7] of the same compound?
The value was “Y (MIC of greater than 1 μg/mL to 8 μg/mL)”.

And the “Ceftazidime MIC” value [8]?
The value was “Z (MIC of greater than 8 μg/mL)”.

And the “Ceftazidime MIC” value [9]?
The value was “Y (MIC of greater than 1 μg/mL to 8 μg/mL)”.

And the “Ceftazidime MIC” value [10]?
The value was “Y (MIC of greater than 1 μg/mL to 8 μg/mL)”.

And the “Ceftazidime MIC” value [11]?
The value was “Y (MIC of greater than 1 μg/mL to 8 μg/mL)”.

And the “Ceftazidime MIC” value [12]?
The value was “X (MIC of 1 μg/mL or less)”.

What about the “Ceftazidime MIC” value [13] of the same compound?
The value was “Z (MIC of greater than 8 μg/mL)”.

And the “Ceftazidime MIC” value (SA1000 Salmonella CMY-2)?
Its value is “X (MIC of 1 μg/mL or less)”.

What about the “Ceftazidime MIC” value [14] of the same compound?
The value was “Z (MIC of greater than 8 μg/mL)”.

What about the IC50 [15] of the same compound?
Its IC50 is < 1.72 µM.

What about the IC50 [16] of the same compound?
Its IC50 is < 1.72 µM.

What about the IC50 [17] of the same compound?
The IC50 was 1.72 to 6.87 µM.

And the IC50 [18]?
The IC50 was < 1.72 µM.

And the IC50 ([19]; lysate KP1004 KPC-2, read-out: AZT IC50 KP1004 KPC-2 (converted))?
The IC50 was < 1.72 µM.

What about the IC50 ([19]; lysate KP1008 KPC-2, read-out: AZT IC50 KP1008 KPC-2) of the same compound?
Its IC50 is < 1.72 µM.

What about the IC50 [20] of the same compound?
Its IC50 is > 6.87 µM.

What about the IC50 (SHV-18, lysate of KP1012) of the same compound?
Its IC50 is 0.344 to 3.44 µM.

And the IC50 (SHV-12, lysate of KP1010)?
Its IC50 is > 3.44 µM.

What about the IC50 (SME-2, lysate of SM1000) of the same compound?
Its IC50 is 0.344 to 3.44 µM.
